In PubChem BioAssay (NCI):
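48-hour exposure; five concentrations; linearly interpolated endpoints. TGI is the concentration that stops growth completely.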

Experiments:
Experiment in all cases: DTP human tumour cell line panel, 48 h
IGROV1 ovarian = system: IGROV1 ovarian
SR leukemia = system: SR leukemia
HT29 colon = system: HT29 colon
HOP-92 NSCLC = system: HOP-92 NSCLC
CAKI-1 renal = system: CAKI-1 renal
LOX IMVI melanoma = system: LOX IMVI melanoma
A498 renal = system: A498 renal
MCF7 breast = system: MCF7 breast
MDA-MB-231 breast = system: MDA-MB-231 breast
UO-31 renal = system: UO-31 renal
SNB-75 CNS = system: SNB-75 CNS
NCI/ADR-RES ovarian = system: NCI/ADR-RES ovarian
NCI-H522 lung = system: NCI-H522 lung
RXF 393 renal = system: RXF 393 renal
TK-10 renal = system: TK-10 renal
T-47D breast = system: T-47D breast
HCT-15 colon = system: HCT-15 colon
U251 CNS = system: U251 CNS
SF-268 CNS = system: SF-268 CNS
OVCAR-5 ovarian = system: OVCAR-5 ovarian
SK-MEL-2 melanoma = system: SK-MEL-2 melanoma
SF-539 CNS = system: SF-539 CNS
DU-145 prostate = system: DU-145 prostate
M14 melanoma = system: M14 melanoma
MDA-N = system: MDA-N
A549 NSCLC = system: A549 NSCLC
MALME-3M melanoma = system: MALME-3M melanoma
SK-OV-3 ovarian = system: SK-OV-3 ovarian
HS 578T breast = system: HS 578T breast
OVCAR-4 ovarian = system: OVCAR-4 ovarian
ACHN renal = system: ACHN renal
EKVX NSCLC = system: EKVX NSCLC
HCT-116 colon = system: HCT-116 colon
786-0 renal = system: 786-0 renal
SW-620 colon = system: SW-620 colon
SN12C renal = system: SN12C renal
NCI-H226 lung = system: NCI-H226 lung
BT-549 breast = system: BT-549 breast
SNB-19 CNS = system: SNB-19 CNS
K-562 leukemia = system: K-562 leukemia
OVCAR-8 ovarian = system: OVCAR-8 ovarian
COLO 205 colon = system: COLO 205 colon
HCC-2998 colon = system: HCC-2998 colon
SK-MEL-28 melanoma = system: SK-MEL-28 melanoma
NCI-H23 lung = system: NCI-H23 lung
UACC-257 melanoma = system: UACC-257 melanoma
NCI-H460 lung = system: NCI-H460 lung
RPMI-8226 leukemia = system: RPMI-8226 leukemia
UACC-62 melanoma = system: UACC-62 melanoma
HOP-62 NSCLC = system: HOP-62 NSCLC
MDA-MB-435 = system: MDA-MB-435
HL-60(TB) leukemia = system: HL-60(TB) leukemia
MOLT-4 leukemia = system: MOLT-4 leukemia
KM12 colon = system: KM12 colon
SK-MEL-5 melanoma = system: SK-MEL-5 melanoma
PC-3 prostate = system: PC-3 prostate
OVCAR-3 ovarian = system: OVCAR-3 ovarian
SF-295 CNS = system: SF-295 CNS
CCRF-CEM leukemia = system: CCRF-CEM leukemia

`N#CC12CC3=C(N=C1NC1=C(CCc4ccccc41)C2)c1ccccc1CC3` (configuration not stated) was tested, and the TGI (IGROV1 ovarian) was > 40.3 µM, the TGI (SR leukemia) was 0.694 µM and the TGI (HT29 colon) was 6.52 µM. It also gave a TGI (HOP-92 NSCLC) of 41.4 µM, a TGI (CAKI-1 renal) of 77.2 µM and a TGI (LOX IMVI melanoma) of 13.9 µM. The TGI (A498 renal) was 7.97 µM, the TGI (MCF7 breast) was > 38.3 µM and the TGI (MDA-MB-231 breast) was > 57.5 µM. The TGI (UO-31 renal) was 35.1 µM, the TGI (SNB-75 CNS) was 11 µM and the TGI (NCI/ADR-RES ovarian) was 29.5 µM. For the same compound, the TGI (NCI-H522 lung) was 6.47 µM, the TGI (RXF 393 renal) was > 100 µM and the TGI (TK-10 renal) was 65.8 µM. For the same compound, the TGI (T-47D breast) was > 96 µM, the TGI (HCT-15 colon) was 51 µM and the TGI (U251 CNS) was 17.1 µM. For the same compound, the TGI (SF-268 CNS) was > 86.4 µM, the TGI (OVCAR-5 ovarian) was > 100 µM and the TGI (SK-MEL-2 melanoma) was 23.6 µM. The TGI (SF-539 CNS) was 7.22 µM, the TGI (DU-145 prostate) was > 85.1 µM and the TGI (M14 melanoma) was 17.6 µM. The TGI (MDA-N) was 0.809 µM, the TGI (A549 NSCLC) was > 100 µM and the TGI (MALME-3M melanoma) was 37.1 µM. For the same compound, the TGI (SK-OV-3 ovarian) was 27.6 µM, the TGI (HS 578T breast) was > 34.5 µM and the TGI (OVCAR-4 ovarian) was > 78.6 µM. The TGI (ACHN renal) was > 100 µM, the TGI (EKVX NSCLC) was > 100 µM and the TGI (HCT-116 colon) was 21.7 µM. For the same compound, the TGI (786-0 renal) was 43.8 µM, the TGI (SW-620 colon) was > 42.4 µM and the TGI (SN12C renal) was > 81.9 µM. It also gave a TGI (NCI-H226 lung) of 29.7 µM, a TGI (BT-549 breast) of 65.3 µM and a TGI (SNB-19 CNS) of 73.5 µM. It also gave a TGI (K-562 leukemia) of 1.36 µM, a TGI (OVCAR-8 ovarian) of 15.7 µM and a TGI (COLO 205 colon) of 5.55 µM. For the same compound, the TGI (HCC-2998 colon) was 4.35 µM, the TGI (SK-MEL-28 melanoma) was 44.3 µM and the TGI (NCI-H23 lung) was 39.2 µM. The TGI (UACC-257 melanoma) was > 84.4 µM, the TGI (NCI-H460 lung) was > 100 µM and the TGI (RPMI-8226 leukemia) was 4.15 µM. It also gave a TGI (UACC-62 melanoma) of 42.6 µM, a TGI (HOP-62 NSCLC) of 53 µM and a TGI (MDA-MB-435) of 0.923 µM. The TGI (HL-60(TB) leukemia) was 1.15 µM, the TGI (MOLT-4 leukemia) was 7 µM and the TGI (KM12 colon) was 20.4 µM. For the same compound, the TGI (SK-MEL-5 melanoma) was > 35.5 µM, the TGI (PC-3 prostate) was > 54.5 µM and the TGI (OVCAR-3 ovarian) was 8.13 µM. The TGI (SF-295 CNS) was 12 µM and the TGI (CCRF-CEM leukemia) was 3.38 µM.
With `CN(C)c1ccc(C2SCC(=O)N2c2nc3cc4sc(N5C(=O)CSC5c5ccc(N(C)C)cc5)nc4cc3s2)cc1` (configuration not stated) the TGI (IGROV1 ovarian) was > 100 µM, the TGI (SR leukemia) was > 100 µM and the TGI (HT29 colon) was > 100 µM. For the same compound, the TGI (HOP-92 NSCLC) was > 100 µM, the TGI (CAKI-1 renal) was > 100 µM and the TGI (LOX IMVI melanoma) was > 100 µM. The TGI (A498 renal) was > 100 µM, the TGI (MCF7 breast) was > 100 µM and the TGI (MDA-MB-231 breast) was > 100 µM. The TGI (UO-31 renal) was > 100 µM, the TGI (SNB-75 CNS) was > 100 µM and the TGI (NCI/ADR-RES ovarian) was > 76.3 µM. For the same compound, the TGI (NCI-H522 lung) was > 100 µM, the TGI (RXF 393 renal) was > 100 µM and the TGI (TK-10 renal) was > 100 µM. The TGI (T-47D breast) was > 100 µM, the TGI (HCT-15 colon) was > 100 µM and the TGI (U251 CNS) was > 100 µM. The TGI (SF-268 CNS) was > 100 µM, the TGI (OVCAR-5 ovarian) was > 100 µM and the TGI (SK-MEL-2 melanoma) was > 100 µM. The TGI (SF-539 CNS) was > 100 µM, the TGI (DU-145 prostate) was > 87.2 µM and the TGI (M14 melanoma) was > 100 µM. The TGI (MDA-N) was > 100 µM, the TGI (A549 NSCLC) was > 100 µM and the TGI (MALME-3M melanoma) was > 100 µM. The TGI (SK-OV-3 ovarian) was > 100 µM, the TGI (HS 578T breast) was > 100 µM and the TGI (OVCAR-4 ovarian) was > 100 µM. For the same compound, the TGI (ACHN renal) was > 100 µM, the TGI (EKVX NSCLC) was > 100 µM and the TGI (HCT-116 colon) was > 100 µM. For the same compound, the TGI (786-0 renal) was > 100 µM, the TGI (SW-620 colon) was > 100 µM and the TGI (SN12C renal) was > 100 µM. The TGI (NCI-H226 lung) was 73.1 µM, the TGI (BT-549 breast) was > 100 µM and the TGI (SNB-19 CNS) was > 100 µM. For the same compound, the TGI (K-562 leukemia) was > 100 µM, the TGI (OVCAR-8 ovarian) was > 100 µM and the TGI (COLO 205 colon) was > 100 µM. The TGI (HCC-2998 colon) was > 100 µM, the TGI (SK-MEL-28 melanoma) was > 100 µM and the TGI (NCI-H23 lung) was > 100 µM. For the same compound, the TGI (UACC-257 melanoma) was > 70 µM, the TGI (NCI-H460 lung) was > 28.3 µM and the TGI (RPMI-8226 leukemia) was > 100 µM. The TGI (UACC-62 melanoma) was > 100 µM, the TGI (HOP-62 NSCLC) was > 100 µM and the TGI (MDA-MB-435) was > 100 µM. For the same compound, the TGI (HL-60(TB) leukemia) was > 100 µM, the TGI (MOLT-4 leukemia) was > 100 µM and the TGI (KM12 colon) was > 100 µM. For the same compound, the TGI (SK-MEL-5 melanoma) was > 100 µM, the TGI (PC-3 prostate) was > 100 µM and the TGI (OVCAR-3 ovarian) was > 100 µM. For the same compound, the TGI (SF-295 CNS) was > 100 µM and the TGI (CCRF-CEM leukemia) was > 100 µM.
Work on `O=C(Nn1cc(F)c(=O)[nH]c1=O)C12CC3CC(CC(C3)C1)C2` yielded a TGI (IGROV1 ovarian) of 27.5 µM, a TGI (SR leukemia) of 26.8 µM and a TGI (HT29 colon) of 37.1 µM. The TGI (HOP-92 NSCLC) was 42.6 µM, the TGI (CAKI-1 renal) was 32.7 µM and the TGI (LOX IMVI melanoma) was 27.8 µM. The TGI (A498 renal) was > 81.2 µM, the TGI (MCF7 breast) was > 100 µM and the TGI (MDA-MB-231 breast) was 37 µM. The TGI (UO-31 renal) was 54.4 µM, the TGI (SNB-75 CNS) was 80.1 µM and the TGI (NCI/ADR-RES ovarian) was > 100 µM. The TGI (NCI-H522 lung) was 44.5 µM, the TGI (RXF 393 renal) was 57.8 µM and the TGI (TK-10 renal) was > 86.8 µM. For the same compound, the TGI (T-47D breast) was > 80.2 µM, the TGI (HCT-15 colon) was 25.6 µM and the TGI (U251 CNS) was > 72 µM. The TGI (SF-268 CNS) was 98.2 µM, the TGI (OVCAR-5 ovarian) was > 95.1 µM and the TGI (SK-MEL-2 melanoma) was 63.3 µM. For the same compound, the TGI (SF-539 CNS) was 16.3 µM, the TGI (DU-145 prostate) was > 100 µM and the TGI (M14 melanoma) was > 72.6 µM. The TGI (MDA-N) was > 57 µM, the TGI (A549 NSCLC) was > 100 µM and the TGI (MALME-3M melanoma) was 32.2 µM. The TGI (SK-OV-3 ovarian) was 77.5 µM, the TGI (HS 578T breast) was > 81.2 µM and the TGI (OVCAR-4 ovarian) was > 66.2 µM. The TGI (ACHN renal) was 63.8 µM, the TGI (EKVX NSCLC) was > 89.1 µM and the TGI (HCT-116 colon) was 24.9 µM. For the same compound, the TGI (786-0 renal) was > 100 µM, the TGI (SW-620 colon) was > 96.4 µM and the TGI (SN12C renal) was > 100 µM. For the same compound, the TGI (NCI-H226 lung) was > 100 µM, the TGI (BT-549 breast) was 79.3 µM and the TGI (SNB-19 CNS) was > 100 µM. The TGI (K-562 leukemia) was > 75.9 µM, the TGI (OVCAR-8 ovarian) was > 100 µM and the TGI (COLO 205 colon) was 23.5 µM. The TGI (HCC-2998 colon) was 18.4 µM, the TGI (SK-MEL-28 melanoma) was > 86.6 µM and the TGI (NCI-H23 lung) was 53 µM. For the same compound, the TGI (UACC-257 melanoma) was > 100 µM, the TGI (NCI-H460 lung) was 19.7 µM and the TGI (RPMI-8226 leukemia) was 42.5 µM. For the same compound, the TGI (UACC-62 melanoma) was 24.4 µM, the TGI (HOP-62 NSCLC) was 51.8 µM and the TGI (MDA-MB-435) was > 56 µM. The TGI (HL-60(TB) leukemia) was 54.3 µM, the TGI (MOLT-4 leukemia) was 47.9 µM and the TGI (KM12 colon) was 49.1 µM. It also gave a TGI (SK-MEL-5 melanoma) of 12.2 µM, a TGI (PC-3 prostate) of 45.5 µM and a TGI (OVCAR-3 ovarian) of 35.1 µM. The TGI (SF-295 CNS) was > 100 µM and the TGI (CCRF-CEM leukemia) was 45 µM.
